Values joined by “and” are separate entries in the source; they are usually repeats but may differ in a detail not shown here. Equal values may be shown once. Toxic doses and inconclusive results are not listed. Rule for the calls: active = survival T/C of 150% or more; inactive = T/C below 125% in these data.
System: P388 leukemia ip, CD2F1 mice, survival T/C
Assay: NCI In Vivo Anticancer Drug Screen. Data for tumor model P388 Leukemia (intraperitoneal) in CD2F1 (CDF1) mice
Conditions: endpoint: median survival time, higher = longer survival
Outline: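 Mice carrying the transplanted tumor received test compound or vehicle. Survival was recorded in each group, and the value is the treated-group measurement divided by that of the vehicle-treated control group.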

[1] = dose: 60.0 mg/kg/injection, schedule: Q01DX005 (ip), vehicle: saline with Tween-80
[2] = dose: 120.0 mg/kg/injection, schedule: Q01DX005 (ip), vehicle: saline with Tween-80
[3] = dose: 240.0 mg/kg/injection, schedule: Q01DX005 (ip), vehicle: saline with Tween-80
[4] = dose: 30.0 mg/kg/injection, schedule: Q01DX005 (ip), vehicle: saline with Tween-80
[5] = dose: 200.0 mg/kg/injection, schedule: Q01DX005 (ip), vehicle: saline with Tween-80
[6] = dose: 50.0 mg/kg/injection, schedule: Q01DX005 (ip), vehicle: saline with Tween-80
[7] = dose: 100.0 mg/kg/injection, schedule: Q01DX005 (ip), vehicle: saline with Tween-80

Measured: T/C

CC(=O)OC(C)C[N+](C)(C)C (stereo unspecified)
inactive: dose: 100.0 mg/kg/injection, schedule: Q04DX002 (ip), vehicle: saline 102 % of control | dose: 200.0 mg/kg/injection, schedule: Q04DX002 (ip), vehicle: saline 102 % of control | dose: 400.0 mg/kg/injection, schedule: Q04DX002 (ip), vehicle: saline 94 % of control

CC(C(=O)O)N1C(=O)c2ccccc2C1=O (stereo unspecified)
inactive: dose: 4.0 mg/kg/injection, schedule: Q01DX009 (ip), vehicle: water 105 % of control | dose: 8.0 mg/kg/injection, schedule: Q01DX009 (ip), vehicle: water 100 % of control | dose: 16.0 mg/kg/injection, schedule: Q01DX009 (ip), vehicle: water 103 % of control | dose: 32.0 mg/kg/injection, schedule: Q01DX009 (ip), vehicle: water 100 % of control | dose: 64.0 mg/kg/injection, schedule: Q01DX009 (ip), vehicle: water 99 % of control

O=C(O)c1ccccc1N/N=C\c1cc(/C=N/Nc2ccccc2C(=O)O)nc2[nH]c(=O)ccc12
inactive: dose: 100.0 mg/kg/injection, schedule: Q04DX002 (ip), vehicle: Klucel (hydroxypropylcellulose) (HPC) 102 % of control | dose: 200.0 mg/kg/injection, schedule: Q04DX002 (ip), vehicle: Klucel (hydroxypropylcellulose) (HPC) 107 % of control | dose: 400.0 mg/kg/injection, schedule: Q04DX002 (ip), vehicle: Klucel (hydroxypropylcellulose) (HPC) 105 % of control

NC(CC(=O)NO)C(=O)O (stereo unspecified)
inactive: dose: 200.0 mg/kg/injection, schedule: Q01DX009 (ip), vehicle: saline 110 % of control | dose: 400.0 mg/kg/injection, schedule: Q01DX009 (ip), vehicle: saline 120 % of control

COc1ccc2c(c1)[C@]13CCN(C)[C@H](C2)[C@@H]1CCC1(C3)OCCO1
inactive: dose: 100.0 mg/kg/injection, schedule: Q01DX001 (ip), vehicle: saline with Tween-80 104 % of control | dose: 200.0 mg/kg/injection, schedule: Q01DX001 (ip), vehicle: saline with Tween-80 106 % of control

COc1ccc(-c2c([O-])oc(-c3ccccc3)[n+]2C)cc1
inactive: [1] 98 % of control | [2] 96 % of control | [3] 98 % of control

O=C(NC1CCCCC1)OCc1c(COC(=O)NC2CCCCC2)c2cccn2c2c1cnn2-c1ccccc1
inactive: dose: 15.0 mg/kg/injection, schedule: Q01DX005 (ip), vehicle: saline with Tween-80 93 % of control | [4] 88 % of control and 89 % of control | [2] 92 % of control and 96 % of control | [3] 99 % of control

O=C(O)c1cnc2cc3c(cc2c1Nc1ccc2c(c1)OCO2)OCO3
inactive: dose: 60.0 mg/kg/injection, schedule: Q01DX005 (ip), vehicle: Klucel (hydroxypropylcellulose) (HPC) 93 % of control | dose: 120.0 mg/kg/injection, schedule: Q01DX005 (ip), vehicle: Klucel (hydroxypropylcellulose) (HPC) 92 % of control | dose: 240.0 mg/kg/injection, schedule: Q01DX005 (ip), vehicle: Klucel (hydroxypropylcellulose) (HPC) 96 % of control

CCCCc1ccc(Sc2cccc3c2C(=O)c2c(Sc4ccc(CCCC)cc4)cccc2C3=O)cc1
inactive: dose: 100.0 mg/kg/injection, schedule: Q04DX003 (ip), vehicle: saline with Tween-80 95 % of control | dose: 200.0 mg/kg/injection, schedule: Q04DX003 (ip), vehicle: saline with Tween-80 90 % of control | dose: 400.0 mg/kg/injection, schedule: Q04DX003 (ip), vehicle: saline with Tween-80 86 % of control

CCN(CC)[Si](C)(C)N(CC)CC
inactive: [4] 100 % of control | [1] 100 % of control | [2] 104 % of control

CCCCCCCCCCNCCSSCCNC(C)=O
inactive: dose: 1.56 mg/kg/injection, schedule: Q01DX005 (ip), vehicle: Klucel (hydroxypropylcellulose) (HPC) 103 % of control | dose: 3.12 mg/kg/injection, schedule: Q01DX005 (ip), vehicle: Klucel (hydroxypropylcellulose) (HPC) 100 % of control | dose: 6.25 mg/kg/injection, schedule: Q01DX005 (ip), vehicle: Klucel (hydroxypropylcellulose) (HPC) 105 % of control | dose: 12.5 mg/kg/injection, schedule: Q01DX005 (ip), vehicle: Klucel (hydroxypropylcellulose) (HPC) 104 % of control | dose: 25.0 mg/kg/injection, schedule: Q01DX005 (ip), vehicle: Klucel (hydroxypropylcellulose) (HPC) 102 % of control | dose: 50.0 mg/kg/injection, schedule: Q01DX005 (ip), vehicle: Klucel (hydroxypropylcellulose) (HPC) 98 % of control and 103 % of control

CCOC(=O)C(=C=[N-])[n+]1ccc(C)cc1
inactive: dose: 6.25 mg/kg/injection, schedule: Q01DX009 (ip), vehicle: saline sonified 90 % of control | dose: 12.5 mg/kg/injection, schedule: Q01DX009 (ip), vehicle: saline sonified 90 % of control | dose: 25.0 mg/kg/injection, schedule: Q01DX009 (ip), vehicle: saline sonified 90 % of control

OCCCCC1COC(CC2OCC(CCCCO)O2)O1 (stereo unspecified)
inactive: dose: 50.0 mg/kg/injection, schedule: Q01DX005 (ip), vehicle: saline 101 % of control | dose: 100.0 mg/kg/injection, schedule: Q01DX005 (ip), vehicle: saline 100 % of control | dose: 200.0 mg/kg/injection, schedule: Q01DX005 (ip), vehicle: saline 101 % of control

c1cc2c(cc1CC1CCNC1)OCO2 (stereo unspecified)
inactive: dose: 5.0 mg/kg/injection, schedule: Q01DX009 (ip), vehicle: saline 95 % of control | dose: 10.0 mg/kg/injection, schedule: Q01DX009 (ip), vehicle: saline 100 % of control | dose: 20.0 mg/kg/injection, schedule: Q01DX009 (ip), vehicle: saline 95 % of control

Cc1cccc(/C=N/Nc2nc3ccccc3s2)n1
inactive: dose: 6.25 mg/kg/injection, schedule: Q01DX005 (ip), vehicle: saline with Tween-80 90 % of control | dose: 12.5 mg/kg/injection, schedule: Q01DX005 (ip), vehicle: saline with Tween-80 89 % of control | [5] 99 % of control

O=C1C=C(SCCCC(=O)N2CCOCC2)C(=O)c2ccccc21
inactive: dose: 6.25 mg/kg/injection, schedule: Q04DX003 (ip), vehicle: Klucel (hydroxypropylcellulose) (HPC) 107 % of control | dose: 12.5 mg/kg/injection, schedule: Q04DX003 (ip), vehicle: Klucel (hydroxypropylcellulose) (HPC) 104 % of control

NS(=O)(=O)C1CCCCC1
inactive: dose: 3.13 mg/kg/injection, schedule: Q01DX009 (ip), vehicle: saline 106 % of control | dose: 6.25 mg/kg/injection, schedule: Q01DX009 (ip), vehicle: saline 99 % of control | dose: 12.5 mg/kg/injection, schedule: Q01DX009 (ip), vehicle: saline 106 % of control | dose: 25.0 mg/kg/injection, schedule: Q01DX009 (ip), vehicle: saline 106 % of control

O=C(Nc1ccccc1Br)c1cccc([N+](=O)[O-])c1O
inactive: dose: 50.0 mg/kg/injection, schedule: Q01DX009 (ip), vehicle: saline with Tween-80 107 % of control | dose: 100.0 mg/kg/injection, schedule: Q01DX009 (ip), vehicle: saline with Tween-80 98 % of control | dose: 200.0 mg/kg/injection, schedule: Q01DX009 (ip), vehicle: saline with Tween-80 97 % of control

CCN1CCCC(Nc2cc(C)nc(/N=C(/N)Nc3ccc(Cl)c(Cl)c3)n2)C1 (stereo unspecified)
inactive: dose: 3.13 mg/kg/injection, schedule: Q01DX009 (ip), vehicle: water 93 % of control | dose: 6.25 mg/kg/injection, schedule: Q01DX009 (ip), vehicle: water 97 % of control | dose: 12.5 mg/kg/injection, schedule: Q01DX009 (ip), vehicle: water 107 % of control and 97 % of control | dose: 25.0 mg/kg/injection, schedule: Q01DX009 (ip), vehicle: water 101 % of control

CSc1nc2ncnc(N)c2[nH]1
inactive: [6] 93 % of control | [7] 96 % of control | [5] 108 % of control

COc1cc2c(cc1OC)C1CC(CC(N)=O)(C(N)=O)CCN1CC2 (stereo unspecified)
inactive: [6] 97 % of control | [7] 94 % of control | [5] 90 % of control

Nc1ccc(/C=C/c2ccc3cccnc3c2)cc1
inactive: dose: 12.5 mg/kg/injection, schedule: Q01DX009 (ip), vehicle: DMSO 108 % of control | dose: 25.0 mg/kg/injection, schedule: Q01DX009 (ip), vehicle: DMSO 97 % of control | dose: 50.0 mg/kg/injection, schedule: Q01DX009 (ip), vehicle: DMSO 101 % of control

Reference: PubChem BioAssay AID330 (DTP/NCI, 2004)
